Reference: patent US8519128B2, “Pyripyropene derivatives having an ACAT2-inhibiting activity” (The Kitasato Institute, priority 2007, dated 2013)
Like-named read-outs stand apart in the source and are kept apart here.

Biological target: T1, ACAT 2 (Mus musculus, UniProt O88908)
T1 construct: The source of ACAT 2 enzyme used was a membrane fraction derived from mouse liver microsome; from tissue; host or cells: mouse liver (microsome fraction)
T1 sequence (O88908 1-525): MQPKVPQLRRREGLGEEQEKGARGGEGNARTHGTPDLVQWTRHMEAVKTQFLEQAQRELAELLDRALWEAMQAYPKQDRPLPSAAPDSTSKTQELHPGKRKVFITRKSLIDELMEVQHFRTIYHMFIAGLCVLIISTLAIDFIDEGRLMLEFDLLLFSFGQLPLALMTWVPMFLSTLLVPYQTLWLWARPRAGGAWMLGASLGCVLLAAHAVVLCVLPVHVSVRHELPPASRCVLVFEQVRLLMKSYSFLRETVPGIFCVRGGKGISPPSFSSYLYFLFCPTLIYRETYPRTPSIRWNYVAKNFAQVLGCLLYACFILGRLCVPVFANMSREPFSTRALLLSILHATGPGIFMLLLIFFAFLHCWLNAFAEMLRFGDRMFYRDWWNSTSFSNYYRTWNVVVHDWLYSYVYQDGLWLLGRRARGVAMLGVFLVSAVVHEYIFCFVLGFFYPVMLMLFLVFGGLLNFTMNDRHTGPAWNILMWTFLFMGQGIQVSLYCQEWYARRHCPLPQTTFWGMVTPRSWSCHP
Test: ACAT-inhibiting activity, mouse liver microsome membrane fraction, [14C]oleoyl-CoA
Type: biochemical
Method: The source of ACAT 2 enzyme used was a membrane fraction derived from mouse liver microsome. Mouse liver was homogenized in buffer solution A (50 mM Tris-HCl (pH 7.8), 1 mM ethylenediamine tetraacetate, and 1 mM phenylmethanesulfonyl fluoride) using a homogenizer of the Potter type (Tokyo-RIKO). The homogenate was centrifuged at 12000×g, and the supernatant was ultracentrifuged at 100000×g. The sediment was taken as a microsome fraction, and this fraction was adjusted to have a protein concentration of 5 mg/ml using buffer solution A.
The chloroform layer was evaporated to dryness and was used to spot a thin layer chromatography plate (silica gel plate, Merck, 0.5 mm thickness). Elution for separation was carried out using a solvent of hexane/diethyl ether/acetic acid (70:30:1, v/v).

[1] = mouse liver microsome, 5 minutes at 37° C.

| Specific activity: (inhibitory activity of test compound)/(inhibitory activity of pyripyropene A) (relative to pyripyropene A) | IC50 [1] [µM] | Specific activity relative to pyripyropene A (numeric) (relative to pyripyropene A) | Compound | IC50 (read-out: Inhibitory activity: Concentration required for 50% inhibition of ACAT 2, mouse liver microsome, 5 minutes at 37° C.) [µM] | IC50 [µM] |
| --- | --- | --- | --- | --- | --- |
| +++ (50 > specific activity > 10) | 0.01 to 0.1 |  | CC(=O)OCC1(C)C2C[C@H](OC(=O)c3cccc(I)c3)[C@@]3(C)Oc4cc(-c5cccnc5)oc(=O)c4[C@H](O)C3[C@@]2(C)CC[C@@H]1OC(C)=O (some centres unmarked) [PRD 005, 7-m-iodobenzoyl-7-deacetylpyripyropene A] |  |  |
| +++ (50 > specific activity > 10) |  |  | CC(=O)OCC1(C)C2C[C@H](OC(=O)c3cccc(C)c3)[C@@]3(C)Oc4cc(-c5cccnc5)oc(=O)c4[C@H](O)C3[C@@]2(C)CC[C@@H]1OC(C)=O (some centres unmarked) [PRD 008, 7-m-methylbenzoyl-7-deacetylpyripyropene A] |  |  |
| +++ (50 > specific activity > 10) | 0.01 to 0.1 |  | CC(=O)OCC1(C)C2C[C@H](OC(=O)c3cccc(Cl)c3)[C@@]3(C)Oc4cc(-c5cccnc5)oc(=O)c4[C@H](O)C3[C@@]2(C)CC[C@@H]1OC(C)=O (some centres unmarked) [PRD 011, 7-m-chlorobenzoyl-7-deacetylpyripyropene A] |  |  |
| +++ (50 > specific activity > 10) | < 0.01 |  | C=Cc1cccc(C(=O)O[C@H]2CC3C(C)(COC(C)=O)[C@@H](OC(C)=O)CC[C@]3(C)C3[C@@H](O)c4c(cc(-c5cccnc5)oc4=O)O[C@@]32C)c1 (some centres unmarked) [PRD 013, 7-m-vinylbenzoyl-7-deacetylpyripyropene A] |  |  |
| ++ (10 > specific activity > 5) |  |  | C=Cc1ccc(C(=O)O[C@H]2CC3C(C)(COC(C)=O)[C@@H](OC(C)=O)CC[C@]3(C)C3[C@@H](O)c4c(cc(-c5cccnc5)oc4=O)O[C@@]32C)cc1 (some centres unmarked) [PRD 014, 7-p-vinylbenzoyl-7-deacetylpyripyropene A] |  |  |
| +++ (50 > specific activity > 10) | 0.01 to 0.1 |  | CC(=O)OCC1(C)C2C[C@H](OC(=O)c3cccc(C#N)c3)[C@@]3(C)Oc4cc(-c5cccnc5)oc(=O)c4[C@H](O)C3[C@@]2(C)CC[C@@H]1OC(C)=O (some centres unmarked) [PRD 016, 7-m-cyanobenzoyl-7-deacetylpyripyropene A] |  |  |
| +++ (50 > specific activity > 10) | 0.01 to 0.1 |  | CSc1cccc(C(=O)O[C@H]2CC3C(C)(COC(C)=O)[C@@H](OC(C)=O)CC[C@]3(C)C3[C@@H](O)c4c(cc(-c5cccnc5)oc4=O)O[C@@]32C)c1 (some centres unmarked) [PRD 023, 7-m-methylthiobenzoyl-7-deacetylpyripyropene A] |  |  |
| +++++ (specific activity > 100) | < 0.01 | ≥ 100 | CC(=O)OCC1(C)C2C[C@H](OC(=O)c3cccc(F)c3)[C@@]3(C)Oc4cc(-c5cccnc5)oc(=O)c4[C@H](O)C3[C@@]2(C)CC[C@@H]1OC(C)=O (some centres unmarked) [PRD 024, 7-m-fluorobenzoyl-7-deacetylpyripyropene A] |  |  |

Second part, the compound before the results:

| Compound | Specific activity: (inhibitory activity of test compound)/(inhibitory activity of pyripyropene A) (relative to pyripyropene A) | IC50 [1] [µM] | Specific activity relative to pyripyropene A (numeric) (relative to pyripyropene A) | IC50 (read-out: Inhibitory activity: Concentration required for 50% inhibition of ACAT 2, mouse liver microsome, 5 minutes at 37° C.) [µM] | IC50 [µM] |
| --- | --- | --- | --- | --- | --- |
| 7-O-o,m,p-trifluorobenzoyl-7-deacetylpyripyropene A [PRD 110] | +++ (50 > specific activity > 10) |  |  | < 0.01 |  |
| COc1ccccc1C(=O)O[C@H]1CC2C(C)(COC(C)=O)[C@@H](OC(C)=O)CC[C@]2(C)C2[C@@H](O)c3c(cc(-c4cccnc4)oc3=O)O[C@@]21C (some centres unmarked) [PRD 001, 7-o-methoxybenzoyl-7-deacetylpyripyropene A] | + (5 > specific activity > 1) | 0.01 to 0.1 |  |  |  |
| COc1cccc(C(=O)O[C@H]2CC3C(C)(COC(C)=O)[C@@H](OC(C)=O)CC[C@]3(C)C3[C@@H](O)c4c(cc(-c5cccnc5)oc4=O)O[C@@]32C)c1 (some centres unmarked) [PRD 002, 7-m-methoxybenzoyl-7-deacetylpyripyropene A] | +++ (50 > specific activity > 10) | 0.01 to 0.1 |  |  |  |
| COc1ccc(C(=O)O[C@H]2CC3C(C)(COC(C)=O)[C@@H](OC(C)=O)CC[C@]3(C)C3[C@@H](O)c4c(cc(-c5cccnc5)oc4=O)O[C@@]32C)cc1 (some centres unmarked) [PRD 003, 7-p-methoxybenzoyl-7-deacetylpyripyropene A] | +++ (50 > specific activity > 10) | < 0.01 |  |  |  |
| CC(=O)OCC1(C)C(OC(C)=O)CCC2(C)C1CC(OC(=O)c1ccccc1I)C1(C)Oc3cc(-c4cccnc4)oc(=O)c3C(O)C21 (centres unmarked) [PRD 004, 7-o-iodobenzoyl-7-deacetylpyripyropene A] | +++ (50 > specific activity > 10) |  |  |  |  |
| CC(=O)OCC1(C)C2C[C@H](OC(=O)c3ccc(I)cc3)[C@@]3(C)Oc4cc(-c5cccnc5)oc(=O)c4[C@H](O)C3[C@@]2(C)CC[C@@H]1OC(C)=O (some centres unmarked) [PRD 006, 7-p-iodobenzoyl-7-deacetylpyripyropene A] | ++ (10 > specific activity > 5) | 0.01 to 0.1 |  |  |  |
| CC(=O)OCC1(C)C2C[C@H](OC(=O)c3ccccc3C)[C@@]3(C)Oc4cc(-c5cccnc5)oc(=O)c4[C@H](O)C3[C@@]2(C)CC[C@@H]1OC(C)=O (some centres unmarked) [PRD 007, 7-o-methylbenzoyl-7-deacetylpyripyropene A] | ++++ (100 > specific activity > 50) |  |  |  |  |
| CC(=O)OCC1(C)C(OC(C)=O)CCC2(C)C1CC(OC(=O)c1ccc(C)cc1)C1(C)Oc3cc(-c4cccnc4)oc(=O)c3C(O)C21 (centres unmarked) [PRD 009] | ++++ (100 > specific activity > 50) |  |  |  |  |
| CC(=O)OCC1(C)C2C[C@H](OC(=O)c3ccccc3Cl)[C@@]3(C)Oc4cc(-c5cccnc5)oc(=O)c4[C@H](O)C3[C@@]2(C)CC[C@@H]1OC(C)=O (some centres unmarked) [PRD 010, 7-o-chlorobenzoyl-7-deacetylpyripyropene A] | +++ (50 > specific activity > 10) | 0.01 to 0.1 |  |  |  |
| CC(=O)OCC1(C)C2C[C@H](OC(=O)c3ccc(Cl)cc3)[C@@]3(C)Oc4cc(-c5cccnc5)oc(=O)c4[C@H](O)C3[C@@]2(C)CC[C@@H]1OC(C)=O (some centres unmarked) [PRD 012, 7-p-chlorobenzoyl-7-deacetylpyripyropene A] | +++ (50 > specific activity > 10) | < 0.01 |  |  |  |
| CC(=O)OCC1(C)C2C[C@H](OC(=O)c3ccccc3C#N)[C@@]3(C)Oc4cc(-c5cccnc5)oc(=O)c4[C@H](O)C3[C@@]2(C)CC[C@@H]1OC(C)=O (some centres unmarked) [PRD 015, 7-o-cyanobenzoyl-7-deacetylpyripyropene A] | + (5 > specific activity > 1) | 0.1 to 1 |  |  |  |
| CSc1ccc(C(=O)O[C@H]2CC3C(C)(COC(C)=O)[C@@H](OC(C)=O)CC[C@]3(C)C3[C@@H](O)c4c(cc(-c5cccnc5)oc4=O)O[C@@]32C)cc1 (some centres unmarked) [PRD 018, 7-p-methylthiobenzoyl-7-deacetylpyripyropene A] | + (5 > specific activity > 1) | 0.01 to 0.1 |  |  |  |
| CC(=O)OCC1(C)C2C[C@H](OC(=O)c3ccc(Br)cc3)[C@@]3(C)Oc4cc(-c5cccnc5)oc(=O)c4[C@H](O)C3[C@@]2(C)CC[C@@H]1OC(C)=O (some centres unmarked) [PRD 019, 7-p-bromobenzoyl-7-deacetylpyripyropene A] | +++ (50 > specific activity > 10) |  |  |  |  |
| CC(=O)OCC1(C)C2C[C@H](OC(=O)c3ccc(F)cc3)[C@@]3(C)Oc4cc(-c5cccnc5)oc(=O)c4[C@H](O)C3[C@@]2(C)CC[C@@H]1OC(C)=O (some centres unmarked) [PRD 020, 7-p-fluorobenzoyl-7-deacetylpyripyropene A] | +++ (50 > specific activity > 10) | < 0.01 |  |  |  |
| CC(=O)OCC1(C)C2C[C@H](OC(=O)C3CCCCC3)[C@@]3(C)Oc4cc(-c5cccnc5)oc(=O)c4[C@H](O)C3[C@@]2(C)CC[C@@H]1OC(C)=O (some centres unmarked) [PRD 021, 7-cyclohexanecarboxyl-7-deacetylpyripyropene A] | ++++ (100 > specific activity > 50) |  |  |  | < 0.01 |
| CC(=O)OCC1(C)C2C[C@H](OC(=O)C34CC5CC(CC(C5)C3)C4)[C@@]3(C)Oc4cc(-c5cccnc5)oc(=O)c4[C@H](O)C3[C@@]2(C)CC[C@@H]1OC(C)=O (some centres unmarked) [PRD 022, 7-1-adamantanecarboxyl-7-deacetylpyripyropene A] | +++ (50 > specific activity > 10) | < 0.01 |  |  |  |
| CCc1ccc(C(=O)O[C@H]2CC3C(C)(COC(C)=O)[C@@H](OC(C)=O)CC[C@]3(C)C3[C@@H](O)c4c(cc(-c5cccnc5)oc4=O)O[C@@]32C)cc1 (some centres unmarked) [PRD 025, 7-p-ethylbenzoyl-7-deacetylpyripyropene A] | ++++ (100 > specific activity > 50) |  |  |  |  |
